Results from PubChem BioAssay (NCI).
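Method: 48-hour compound exposure of cells in 96-well plates, five concentrations, linear interpolation of endpoints. Abbreviation: GI50, concentration required for 50% inhibition of growth. TGI marks complete inhibition of growth.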

Assays:
Assay in all cases: NCI anticancer screen, dose series, 48 h
OVCAR-5 ovarian = tested on: OVCAR-5 ovarian
OVCAR-3 ovarian = tested on: OVCAR-3 ovarian
M14 melanoma = tested on: M14 melanoma
OVCAR-8 ovarian = tested on: OVCAR-8 ovarian
SR leukemia = tested on: SR leukemia
SK-MEL-5 melanoma = tested on: SK-MEL-5 melanoma
A549 NSCLC = tested on: A549 NSCLC
NCI-H23 lung = tested on: NCI-H23 lung
SK-MEL-28 melanoma = tested on: SK-MEL-28 melanoma
MDA-MB-231 breast = tested on: MDA-MB-231 breast

Row | Compound | TGI (OVCAR-5 ovarian) [µM] | TGI (OVCAR-3 ovarian) [µM] | TGI (M14 melanoma) [µM] | TGI (OVCAR-8 ovarian) [µM] | TGI (SR leukemia) [µM] | TGI (SK-MEL-5 melanoma) [µM] | TGI (A549 NSCLC) [µM] | TGI (NCI-H23 lung) [µM] | TGI (SK-MEL-28 melanoma) [µM] | TGI (MDA-MB-231 breast) [µM] | GI50 (OVCAR-5 ovarian) [µM] | GI50 (OVCAR-3 ovarian) [µM] | GI50 (M14 melanoma) [µM] | GI50 (OVCAR-8 ovarian) [µM] | GI50 (SR leukemia) [µM] | GI50 (SK-MEL-5 melanoma) [µM] | GI50 (A549 NSCLC) [µM] | GI50 (MDA-MB-231 breast) [µM] | GI50 (NCI-H23 lung) [µM] | GI50 (SK-MEL-28 melanoma) [µM]
1 | CC(C)OP(=O)(OC(C)C)C(=NCCN=C(NNc1ccc([N+](=O)[O-])cc1)P(=O)(OC(C)C)OC(C)C)NNc1ccc([N+](=O)[O-])cc1 | > 100 | 33.4 | > 100 | > 100 | > 100 | > 100 | > 100 | 5.23 | > 100 | – | – | – | – | – | – | – | – | – | – | –
2 | N=Nc1c(OC(=O)Nc2cccc(Cl)c2)[nH]c2ccccc12 | 31.2 | 6.6 | 18.6 | 20 | 44.5 | 24 | 18.7 | 12.1 | 28 | 26.7 | – | – | – | – | – | – | – | – | – | –
3 | CN(C(=O)c1ccc(C(F)(F)F)cc1)c1ccc(Oc2ccc3c(c2)cc(C(=O)N2CCN(Cc4ccc(OC(F)F)cc4)CC2)n3C)nc1 | > 100 | > 100 | > 100 | > 100 | > 100 | 4.82 | > 100 | > 100 | > 100 | > 100 | > 100 | 11.3 | > 100 | 1.71 | < 0.01 | < 0.0213 | 3.23 | > 80.2 | < 0.01 | 63.2
4 | Brc1ccccc1C1SCc2nc3ccccc3n21 (centres undefined) | 68 | 26.7 | 31.4 | 57.1 | 45.1 | 18.7 | > 100 | 33.3 | – | – | – | – | – | – | – | – | – | – | – | –
5 | Cc1ccccc1S(=O)(=O)OC1NS(=O)(=O)c2ccccc21 (centres undefined) | > 100 | > 100 | > 100 | > 100 | > 100 | > 100 | > 100 | > 100 | > 100 | > 100 | – | – | – | – | – | – | – | – | – | –
6 | CCc1cc(Cc2cc(CC)c(NC(=O)C(=O)Cc3ccccn3)c(CC)c2Cl)c(Cl)c(CC)c1NC(=O)C(=O)Cc1ccccn1 | > 100 | > 100 | > 100 | > 100 | > 100 | > 100 | > 100 | > 100 | > 100 | – | – | – | – | – | – | – | – | – | – | –
7 | O=c1c2sccc2n(CC2COc3ccccc3O2)c(=O)n1O (centres undefined) | > 100 | 44.9 | > 100 | > 100 | > 100 | 61.1 | > 100 | 34.4 | > 100 | > 100 | 40 | 10.4 | 21.2 | 30.5 | 8.1 | 17.1 | 23.3 | 39 | 6.88 | 14.5
8 | O=c1cc(-c2ccccc2)oc2cc(OCCCOc3ccc4c(=O)cc(-c5ccccc5)oc4c3)ccc12 | > 100 | > 100 | > 100 | > 100 | > 100 | > 100 | > 100 | > 100 | > 100 | – | – | – | – | – | – | – | – | – | – | –
9 | COc1cccc(-c2nc(-c3ccc(NC(=O)C(C)C)cc3)[nH]c2-c2ccnc(Br)c2)c1 | > 100 | > 100 | > 100 | > 100 | > 100 | 3.32 | > 100 | – | > 100 | > 100 | 4.69 | 3.38 | 3.3 | 3.61 | 2.41 | 1.8 | 3.45 | 4.09 | 2.88 | 2.78
